Consider 27 compounds from US7348425B2, “Inhibitors of HCV replication” (Bristol-Myers Squibb Company, priority 2004, dated 2008).

The subject of one experiment is HCV replicon. The experiment is described as follows: HCV replicon FRET assay. Type of experiment: cell-based. To be noted: Hepatitis C virus; FRET assay; read-out: EC50. Here is the method: The IC50 values for compounds were determined using seven different [I]. IC50 values were calculated from the inhibition using the formula y=A+((B−A)/(1+((C/x)^D))). FRET Assay Preparation. To perform the HCV FRET screening assay, 96-well cell culture plates were used. The FRET peptide (Anaspec, Inc.) (Taliani et al., Anal. Biochem. 240:60-67 (1996), hereby incorporated by reference in its entirety) contains a fluorescence donor, EDANS, near one end of the peptide and an acceptor, DABCYL, near the other end. The fluorescence of the peptide is quenched by […] resonance energy transfer (RET) between the donor and the acceptor, but as the NS3 protease cleaves the peptide the products are released from RET quenching and the fluorescence of the donor becomes apparent. The assay reagent was made as follows: 5× cell Luciferase cell culture lysis reagent from Promega (#E153A) diluted to 1× with dH2O, NaCl added to 150 mM final, the FRET peptide diluted to 20 uM final from a 2 mM stock.
To prepare plates, HCV replicon cells, with or without a Renilla luciferase reporter gene, were trypsinized and placed into each well of a 96-well plate with titrated test compounds added in columns 3 through 12; columns 1 and 2 contained a control compound (HCV protease inhibitor), and the bottom row contained cells without compound. The plates were then placed in a CO2 incubator at 37 degrees C.
Assays. Subsequent to addition of the test compounds described above (FRET Assay Preparation), at various times the plate was removed and Alamar blue solution (Trek Diagnostics, #00-100) was added per well as a measure of cellular toxicity. After reading in a Cytoflour 4000 instrument (PE Biosystems), plates were rinsed with PBS and then used for FRET assay by the addition of 30 ul of the FRET peptide assay reagent described above (FRET Assay Preparation) per well. The plate was then placed into the Cytoflour 4000 instrument which had been set to 340 excite/490 emission, automatic mode for 20 cycles and the plate read in a kinetic mode. Typically, the signal to noise using an endpoint analysis after the reads was at least three-fold. Alternatively, after Alamar blue reading, plates were rinsed with PBS, 50 ul of DMEM (high glucose) without phenol red was added and plates were then used for luciferase assay using the Promega Dual-Glo Luciferase Assay System.
Compound analysis was determined by quantification of the relative HCV replicon inhibition and the relative cytotoxicity values. To calculate cytoxicity values, the average Alamar Blue fluorescence signals from the control wells were set as 100% non-toxic. The individual signals in each of the compound test wells were then divided by the average control signal and multiplied by 100% to determine […]. To calculate the HCV replicon inhibition values, an average background value was obtained from the two wells containing the highest amount of HCV protease inhibitor at the end of the assay period. These numbers were similar to those obtained from naïve Huh-7 cells.
The background numbers were then subtracted from the average signal obtained from the control wells and this number was used as 100% activity. The individual signals in each of the compound test wells were then divided by the averaged control values after background subtraction and multiplied by 100% to determine percent activity. EC50 values for a protease inhibitor titration were calculated as the concentration which caused a 50% reduction in FRET or luciferase activity. The two numbers generated for the compound plate, percent cytoxicity and percent activity were used to determine compounds of interest for further analysis.

Experiment [1] addresses T1, HCV NS5B RdRp genotype 1b (Hepatitis C virus genotype 1b, UniProt Q9WMX2).
T1 construct: The protein was expressed with an 18 amino acid C-terminal truncation to enhance the solubility; made in house; host or cells: E. coli BL21 (DE3), pET21a
Briefly: Modified HCV NS5B RdRp enzyme assay (with preincubation). Particulars: modified method (with preincubation). Type of experiment: biochemical. Here is the method:
HCVNS5B RdRp cloning, expression, and purification. The cDNA encoding the NS5B protein of HCV, genotype 1b, was cloned into the pET21a expression vector. The protein was expressed with an 18 amino acid C-terminal truncation to enhance the solubility. The E. coli competent cell line BL21 (DE3) was used for expression of the protein. Cultures were grown at 37° C. for ˜4 hours until the cultures reached an optical density of 2.0 at 600 nm. The cultures were cooled to 20° C. and induced with 1 mM IPTG. Fresh ampicillin was added to a final concentration of 50 μg/ml and the cells were grown overnight at 20° C.
Cell pellets (3 L) were lysed for purification to yield 15-24 mgs of purified NS5B. The lysis buffer consisted of 20 mM Tris-HCl, pH 7.4, 500 mM NaCl, 0.5% triton X-100, 1 mM DTT, 1 mM EDTA, 20% glycerol, 0.5 mg/ml lysozyme, 10 mM MgCl2, 15 ug/ml deoxyribonuclease I, and Complete TM protease inhibitor tablets (Roche). After addition of the lysis buffer, frozen cell pellets were resuspended using a tissue homogenizer. To reduce the viscosity of the sample, aliquots of the lysate were sonicated on ice using a microtip attached to a Branson sonicator. The sonicated lysate was centrifuged at 100,000×g for 1 hr at 4° C. and filtered through a 0.2 μm filter unit (Corning).
The protein was purified using three sequential chromatography steps: Heparin sepharose CL-6B, polyU sepharose 4B, and Hitrap SP sepharose (Pharmacia). The chromatography buffers were identical to the lysis buffer but contained no lysozyme, deoxyribonuclease I, MgCl2 or protease inhibitor and the NaCl concentration of the buffer was adjusted according to the requirements for charging the protein onto the column. Each column was eluted with a NaCl gradient which varied in length from 5-50 column volumes depending on the column type. After the final chromatography step, the resulting purity of the enzyme is >90% based on SDS-PAGE analysis. The enzyme was aliquoted and stored at −80° C.
Standard HCV NS5B RdRp enzyme assay. HCV RdRp genotype Ib assays were run in a final volume of 60 μl in 96 well plates (Costar 3912). The assay buffer is composed of 20 mM Hepes, pH 7.5, 2.5 mM KCl, 2.5 mM MgCl2, 1 mM DTT, 1.6 U RNAse inhibitor (Promega N2515), 0.1 mg/ml BSA (Promega R3961), and 2% glycerol. All compounds were serially diluted (3-fold) in DMSO and diluted further in water such that the final concentration of DMSO in the assay was 2%. HCV RdRp genotype 1b enzyme was used at a final concentration of 28 nM. A polyA template was used at 6 nM, and a biotinylated oligo-dT12 primer was used at 180 nM final concentration. Template was obtained commercially (Amersham 27-4110). Biotinylated primer was prepared by Sigma Genosys. ^3H-UTP was used at 0.6 μCi (0.29 μM total UTP). Reactions were initiated by the addition of enzyme, incubated at 30° C. for 60 min, and stopped by adding 25 μl of 50 mM EDTA containing SPA beads (4 μg/μl, Amersham RPNQ 0007). Plates were read on a Packard Top Count NXT after >1 hr incubation at room temperature.
Modified HCV NS5B RdRp enzyme assay. A modified enzyme assay was performed essentially as described for the standard enzyme assay except for the following: The biotinylated oligo dT12 primer was precaptured on streptavidin-coated SPA beads by mixing primer and beads in assay buffer and incubating at room temperature for one hour. Unbound primer was removed after centrifugation. The primer-bound beads were resuspended in 20 mM Hepes buffer, pH 7.5 and used in the assay at final concentrations of 20 nM primer and 0.67 μg/μl beads. Order of addition in the assay: enzyme (14 nM) was added to diluted compound followed by the addition of a mixture of template (0.2 nM), ^3H-UTP (0.6 μCi, 0.29 μM), and primer-bound beads, to initiate the reaction; concentrations given are final. Reactions were allowed to proceed for 4 hours at 30° C.
The IC50 values for compounds were determined using seven different [I]. […]

Where only a bound is given, the exact number is not on record here.

T1 sequence (Q9WMX2 2420-2992): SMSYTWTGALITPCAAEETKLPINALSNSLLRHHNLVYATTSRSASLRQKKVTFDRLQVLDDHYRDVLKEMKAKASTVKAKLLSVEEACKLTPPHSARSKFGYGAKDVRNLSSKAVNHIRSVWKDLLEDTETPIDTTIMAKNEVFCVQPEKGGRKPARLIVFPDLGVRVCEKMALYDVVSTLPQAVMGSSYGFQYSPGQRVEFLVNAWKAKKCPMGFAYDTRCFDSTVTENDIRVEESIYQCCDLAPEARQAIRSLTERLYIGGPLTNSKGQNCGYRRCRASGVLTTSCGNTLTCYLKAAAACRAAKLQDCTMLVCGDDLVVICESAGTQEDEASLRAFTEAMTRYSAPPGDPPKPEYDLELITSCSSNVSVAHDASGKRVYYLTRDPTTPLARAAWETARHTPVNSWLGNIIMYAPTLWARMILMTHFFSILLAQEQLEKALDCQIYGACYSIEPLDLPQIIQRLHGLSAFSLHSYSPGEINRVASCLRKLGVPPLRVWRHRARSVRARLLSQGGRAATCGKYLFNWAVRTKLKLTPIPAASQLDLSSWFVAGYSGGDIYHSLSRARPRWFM

Turning to `COC(=O)/C=C/c1ccc(NC(=O)C2(NC(=O)c3ccc4c(C5CCCCC5)c5n(c4c3)CCCc3sc(N)nc3-5)CCCC2)cc1`, the half-maximal effective concentration (EC50) in the experiment with HCV replicon is greater than 10 µM. In experiment [1], this compound yielded a half-inhibitory concentration (IC50) greater than 1 µM.
Consider `Nc1nc2c(s1)CCCn1c-2c(C2CCCCC2)c2ccc(C(=O)NC3(C(=O)Nc4ccc(/C=C/C(=O)O)cc4)CCCC3)cc21`, for which the EC50 in the experiment on HCV replicon was in the range of 1 to 10 µM. The same compound showed a half-maximal inhibitory concentration (IC50) in experiment [1] of 0.02 to 1 µM.
For `NC(=O)C1(NC(=O)c2ccc3c(C4CCCCC4)c4n(c3c2)CC(=O)Nc2ccccc2-4)CCCC1` the same measures were 0.01 to 1 µM and 0.02 to 1 µM.
On to `O=C1Cn2c(c(C3CCCCC3)c3ccc(C(=O)NS(=O)(=O)N4CCN(c5ccccc5)CC4)cc32)-c2ccccc2N1`, for which, in the experiment with HCV replicon, the concentration for a half-maximal effect (EC50) fell in the range of 1 to 10 µM. This compound showed an IC50 in experiment [1] of 0.02 to 1 µM.
The corresponding values for `COC(=O)c1ccc2c(c1)CCN(S(=O)(=O)NC(=O)c1ccc3c(C4CCCCC4)c4n(c3c1)CC(=O)Nc1ccccc1-4)C2` are 1 to 10 µM and 0.02 to 1 µM.
For `O=C(O)/C=C/c1cccc(-c2nc(C3(NC(=O)c4ccc5c(C6CCCCC6)c6n(c5c4)CC=Cc4ccccc4-6)CCCC3)c[nH]2)c1` the same measures were 0.01 to 1 µM and 0.02 to 1 µM.
Turning to `COC(=O)/C=C/c1ccc(NC(=O)C2(NC(=O)c3ccc4c(C5CCCCC5)c5n(c4c3)CCCc3ocnc3-5)CCCC2)cc1`, the EC50 in the experiment with HCV replicon fell in the range of 1 to 10 µM. The half-inhibitory concentration (IC50) in experiment [1] is greater than 1 µM.
On to `O=C(O)/C=C/c1ccc(NC(=O)C2(NC(=O)c3ccc4c(C5CCCCC5)c5n(c4c3)CCCc3ocnc3-5)CCCC2)cc1`, for which the EC50 with HCV replicon lay in the range of 0.01 to 1 µM. Also, in experiment [1], the IC50 lay in the range of 0.02 to 1 µM.
The corresponding values for `O=C(NC1(C(=O)OCc2ccccc2)CCCC1)c1ccc2c(C3CCCCC3)c3n(c2c1)CCCc1cc(O)ccc1-3` are 1 to 10 µM and greater than 1 µM.
For `O=C(O)c1ccc2c(C3CCCCC3)c3n(c2c1)CCOc1ncccc1-3` the same measures were 1 to 10 µM and 0.02 to 1 µM.
For `CCOC(=O)c1nc(-c2ccc(NC(=O)C3(NC(=O)c4ccc5c(C6CCCCC6)c6n(c5c4)CCCc4ccccc4-6)CCCC3)cc2)cs1` the same measures were 0.01 to 1 µM and greater than 1 µM.
With `O=C(NC1(C(=O)Nc2ccc(-c3csc(C(=O)O)n3)cc2)CCCC1)c1ccc2c(C3CCCCC3)c3n(c2c1)CCCc1ccccc1-3`, the EC50 with HCV replicon is 0.01 to 1 µM. In experiment [1], the half-maximal inhibitory concentration (IC50) was 0.02 to 1 µM.
The corresponding values for `O=C(O)c1ccc2c(C3CCCCC3)c3n(c2c1)C/C=C\CN(CCO)c1ccccc1-3` are 1 to 10 µM and greater than 1 µM.
The corresponding values for `O=C(O)c1ccc2c(C3CCCCC3)c3n(c2c1)CCCCN(CCO)c1ccccc1-3` are 1 to 10 µM and greater than 1 µM.
For `O=C1Cn2c(c(C3CCCCC3)c3ccc(C(=O)NC4(C(=O)Nc5ccc(-c6cscn6)cc5)CCCC4)cc32)-c2ccccc2N1` the same measures were 0.01 to 1 µM and 0.02 to 1 µM.
Turning to `CC(C)(C)OC(=O)N1C/C=C\Cn2c(c(C3CCCCC3)c3ccc(C(=O)O)cc32)-c2cnccc21`, the EC50 with HCV replicon was greater than 10 µM. In experiment [1], this compound came in with a 50% inhibitory concentration (IC50) greater than 1 µM.
Turning to `O=C(O)/C=C/c1ccc(NC(=O)C2(NC(=O)c3ccc4c(C5CCCCC5)c5n(c4c3)CCOc3ncccc3-5)CCCC2)cc1`, the concentration giving a half-maximal response (EC50) in the experiment with HCV replicon lay in the range of 0.01 to 1 µM. The compound also gave a half-maximal inhibitory concentration (IC50) in experiment [1] of 0.02 to 1 µM.
For `CC(C)(C)OC(=O)N1CCCCn2c(c(C3CCCCC3)c3ccc(C(=O)O)cc32)-c2cnccc21` the same measures were greater than 10 µM and greater than 1 µM.
With `O=C(O)/C=C/c1ccc(NC(=O)C2(NC(=O)c3ccc4c(C5CCCCC5)c5n(c4c3)CCCN(CCO)c3ccccc3-5)CCCC2)cc1`, in the experiment with HCV replicon, the 50% effective concentration (EC50) lay within 0.01 to 1 µM. The IC50 in experiment [1] fell in the range of 0.02 to 1 µM.
With `COC(=O)c1ccc2c(C3CCCCC3)c3n(c2c1)CC(C(=O)O)Cc1ccccc1-3` (stereo not drawn), in the experiment with HCV replicon, the EC50 was greater than 10 µM. The compound also yielded a 50% inhibitory concentration (IC50) in experiment [1] greater than 1 µM.
For `O=C(O)c1ccc2c(C3CCCCC3)c3c4ccccc4ncn3c2c1` the same measures were greater than 10 µM and greater than 1 µM.
The corresponding values for `COC(=O)/C=C/c1ccc(NC(=O)C2(NC(=O)c3ccc4c(C5CCCCC5)c5c6ccccc6ncn5c4c3)CCCC2)cc1` are 1 to 10 µM and greater than 1 µM.
For `NC(=O)C1Cc2ccccc2-c2c(C3CCCCC3)c3ccc(C(=O)NC4(C(=O)Nc5ccc(/C=C/C(=O)O)cc5)CCCC4)cc3n2C1` (stereo not drawn) the same measures were 0.01 to 1 µM and 0.02 to 1 µM.
`CC(C)(C)OC(=O)N1CC(O)Cn2c(c(C3CCCCC3)c3ccc(C(=O)O)cc32)-c2ccccc21` (stereo not drawn): the EC50 with HCV replicon was in the range of 1 to 10 µM. Also, the half-maximal inhibitory concentration (IC50) in experiment [1] was 0.02 to 1 µM.
The corresponding values for `O=C(O)c1ccc2c(C3CCCCC3)c3n(c2c1)CC(O)CNc1ccccc1-3` (stereo not drawn) are 1 to 10 µM and 0.02 to 1 µM.
As for `O=C(O)c1ccc2c(C3CCCCC3)c3n(c2c1)C[C@@H](O)[C@@H](O)c1ncccc1-3`, the EC50 with HCV replicon lay in the range of 1 to 10 µM. In experiment [1], the half-inhibitory concentration (IC50) lay within 0.02 to 1 µM.
The corresponding values for `CNC(=O)C1Cc2ccccc2-c2c(C3CCCCC3)c3ccc(C(=O)NC4(C(=O)Nc5ccc(/C=C/C(=O)O)cc5)CCCC4)cc3n2C1` (stereo not drawn) are 0.01 to 1 µM and 0.02 to 1 µM.

Usually EC50 stands for the concentration needed to bring the measured effect to its halfway point. A word on the IC50: it is the concentration that inhibits the measured activity by half. High values mean weaker potency in that assay, low ones greater potency in that assay.
